Experimental data published in PMC7413308 (ARKIVOC : free online journal of organic chemistry, 2018).
“And” between values parts separate entries of the source, which are not always exact repeats. Equal values may be shown once.

How the values were obtained:
[1] = In vitro microsomal stability of analogs; assay type: in vitro ADME, human; conditions: for half-life / remaining at 1 h / remaining at 2 h: human, liver microsomes; for remaining at 1 h / remaining at 2 h: Microsomal stability (HLM) % remaining
HEPG2 (liver) cell line = experiment: In vitro cytotoxicity, cell viability; assay type: cell-based; conditions: 48 h incubation, Cell-Titer Glo cell viability
[2] = In vitro microsomal stability of analogs; assay type: in vitro ADME, mouse; conditions: for half-life / remaining at 1 h / remaining at 2 h: mouse, liver microsomes; for remaining at 1 h / remaining at 2 h: Microsomal stability (MLM) % remaining
[3] = tested on: HEK293 (kidney) cell line; experiment: In vitro cytotoxicity, cell viability; assay type: cell-based; conditions: 48 h incubation, Cell-Titer Glo cell viability
mice = experiment: Sensorimotor coordination on rotating rod after oral gavage; assay type: in vivo; conditions: oral gavage 40 mg/kg, rotating rod max 3 minutes, three time-points
[4] = footnote d: assessed at 1-hour incubation time
[5] = footnote a: compound not detected after 10 minutes

| Compound | half-life [1] | HEPG2 LD50 (HEPG2 (liver) cell line) | half-life [2] | HEK293 LD50 [3] | remaining at 2 h ([2]; after 2 hr) | other results |
| --- | --- | --- | --- | --- | --- | --- |
| C#Cc1ccc2c(c1)C(c1ccccc1F)=N[C@@H](C)c1c(C(=O)OC(C)(C)C)ncn1-2 [5d, (S)-tert-Butyl-8-ethynyl-6-(2-fluorophenyl)-4-methyl-4H-benzo[f]imidazo[1,5-a][1,4]diazepine-3-carboxylate] | 8.57 ± 1.92 h | 21.4 ± 1.9 µM | 3.27 ± 0.333 h | – | – | remaining at 1 h [1, 4]: 89 ± 0.2%; remaining at 1 h [2, 4]: 78 ± 0.2% |
| C#Cc1ccc2c(c1)C(c1ccccc1F)=N[C@@H](C)c1c(C(=O)SCC)ncn1-2 [compound 7, (S)-S-Ethyl-8-ethynyl-6-(2-fluorophenyl)-4-methyl-4H-benzo[f]imidazo[1,5-a][1,4]diazepine-3-carbothioate] | – | 30.2 ± 9.7 µM | – | 20.5 ± 4.7 µM | – | Microsomal stability (HLM) % remaining ([1]; after 2 hr): 28.0 ± 0.3%; Microsomal stability (HLM) Half-life ([1]; after 2 hr): 101 ± 19 min; Microsomal stability (MLM) % remaining ([2]; after 2 hr): 9.0 ± 0.5%; Microsomal stability (MLM) Half-life ([2]; after 2 hr): 46 ± 6 min |
| C#Cc1ccc2c(c1)C(c1ccccc1F)=N[C@@H](C)c1c(C(=O)NC(C)C)ncn1-2 [8d, (S)-8-Ethynyl-6-(2-fluorophenyl)-N-isopropyl-4-methyl-4H-benzo[f]imidazo[1,5-a][1,4]diazepine-3-carboxa-mide] | – | 56.9 ± 4.8 µM | – | 80.2 ± 11.1 µM | – | Microsomal stability (HLM) % remaining ([1]; after 2 hr): 38.0 ± 0.5%; Microsomal stability (HLM) Half-life ([1]; after 2 hr): 107 ± 10 min; Effect on sensorimotor coordination (motor impairment, sedation/ataxia) (mice): did not show any motor impairment; Microsomal stability (MLM) % remaining ([2]; after 2 hr): 75.0 ± 0.3% |
| COC(=O)c1ncn2c1[C@H](C)N=C(c1ccccc1F)c1cc(Br)ccc1-2 [4a, (S)-Methyl-8-bromo-6-(2-fluorophenyl)-4-methyl-4H-benzo[f]imidazo[1,5-a][1,4]diazepine-3-carboxylate] | 0.167 ± 0.0167 h | – | 1.93 ± 0.217 h | 98.5 ± 7.9 µM | 41 ± 0.6% | remaining at 1 h [1, 4]: 2 ± 0.3% |
| C#Cc1ccc2c(c1)C(c1ccccc1F)=N[C@@H](C)c1c(C(=O)NC3CC3)ncn1-2 [8c, (S)-N-Cyclopropyl-8-ethynyl-6-(2-fluorophenyl)-4-methyl-4H-benzo[f]imidazo[1,5-a][1,4]diazepine-3-carbox-amide] | – | 93.5 ± 5.7 µM | – | 63.8 ± 3.0 µM | – | Microsomal stability (HLM) % remaining [1, 4]: 89.0 ± 0.4^d %; Microsomal stability (HLM) Half-life [1, 4]: 1625 ± 803^d min; Microsomal stability (MLM) % remaining [2, 4]: 72.0 ± 0.3^d %; Microsomal stability (MLM) Half-life [2, 4]: 320 ± 34^d min |
| C#Cc1ccc2c(c1)C(c1ccccc1F)=N[C@@H](C)c1c(C#N)ncn1-2 [compound 10, (S)-8-Ethynyl-6-(2-fluorophenyl)-4-methyl-4H-benzo[f]imidazo[1,5-a][1,4]diazepine-3-carbonitrile] | 0.683 ± 0.0833 h | 57.1 ± 5.6 µM | 0.967 ± 0.1 h | 81.6 ± 6.7 µM | 16% | remaining at 2 h ([1]; after 2 hr): 9 ± 0.3%; Microsomal stability (MLM) % remaining ([2]; after 2 hr): 17.0 ± 0.6% |
| C#Cc1ccc2c(c1)C(c1ccccc1F)=N[C@@H](C)c1c(-c3nc(CC)no3)ncn1-2 [9b, (S)-3-Ethyl-5-(8-ethynyl-6-(2-fluorophenyl)-4-methyl-4H-benzo[f]imidazo[1,5-a][1,4]diazepin-3-yl)-1,2,4-oxadiazole] | 9.38 ± 2.05 h | 35.1 ± 3.7 µM | 3.55 ± 0.283 h | 46.9 ± 6.6 µM | 63 ± 0.3% | remaining at 2 h ([1]; after 2 hr): 80 ± 0.4%; Effect on sensorimotor coordination (motor impairment, sedation/ataxia) (mice): exhibited no sensorimotor impairment |
| C#Cc1ccc2c(c1)C(c1ccccc1F)=N[C@@H](C)c1c(C(=O)OC)ncn1-2 [5a, (S)-Methyl-8-ethynyl-6-(2-fluorophenyl)-4-methyl-4H-benzo[f]imidazo[1,5-a][1,4]diazepine-3-carboxylate] | 1.98 ± 0.35 h | – | 3.6 ± 0.467 h | 68.2 ± 4.3 µM | 62 ± 0.5% | remaining at 1 h [1, 4]: 43 ± 0.4% |
| CCOC(=O)c1ncn2c1[C@H](C)N=C(c1ccccc1F)c1cc(C3CC3)ccc1-2 [compound 3, (S)-Ethyl-8-cyclopropyl-6-(2-fluorophenyl)-4-methyl-4H-benzo[f]imidazo[1,5-a][1,4]diazepine-3-carboxylate] | < 0.0833 h | 87.0 ± 6.6 µM | 0.767 ± 0.05 h | 58.0 ± 6.0 µM | 16 ± 0.4% | – |
| C#Cc1ccc2c(c1)C(c1ccccc1F)=N[C@@H](C)c1c(C(=O)OCC(F)(F)F)ncn1-2 [5f, (S)-2,2,2-Trifluoroethyl-8-ethynyl-6-(2-fluorophenyl)-4-methyl-4H-benzo[f]imidazo[1,5-a][1,4]diazepine-3-carboxylate] | < 0.0833 h | >400 µM | < 0.0833 h | 138 µM and 138.1 ± 31.8 µM | – | – |
| C#Cc1ccc2c(c1)C(c1ccccc1F)=N[C@@H](C)c1c(C(=O)OC3CC3)ncn1-2 [5g, (S)-Cyclopropyl-8-ethynyl-6-(2-fluorophenyl)-4-methyl-4H-benzo[f]imidazo[1,5-a][1,4]diazepine-3-carboxyl-ate] | – | 85.1 ± 3.8 µM | – | 35.8 ± 3.3 µM | – | % remaining in HLM ([1]; after 10, 20, and 30 minutes in HLM): less than 5%; Microsomal stability (HLM) % remaining [1, 5]: < 5.0^a %; Microsomal stability (HLM) Half-life [1, 5]: < 5^a min; Microsomal stability (MLM) % remaining [2, 4]: 11.0 ± 0.2^d %; Microsomal stability (MLM) Half-life [2, 4]: 19 ± 2^d min |
| C#Cc1ccc2c(c1)C(c1ccccc1F)=N[C@@H](C)c1c(C(=O)OCCC)ncn1-2 [5b, (S)-Propyl-8-ethynyl-6-(2-fluorophenyl)-4-methyl-4H-benzo[f]imidazo[1,5-a][1,4]diazepine-3-carboxylate] | < 0.0833 h | 56.3 ± 4.0 µM | 0.4 h | 53.2 ± 4.4 µM | – | remaining at 1 h [2, 4]: 12 ± 0.2% |
| C#Cc1ccc2c(c1)C(c1ccccc1F)=N[C@@H](C)c1c(C(=O)OC(C)(C)CC)ncn1-2 [5e, (S)-tert-Pentyl-8-ethynyl-6-(2-fluorophenyl)-4-methyl-4H-benzo[f]imidazo[1,5-a][1,4]diazepine-3-carboxylate] | – | 17.1 ± 1.4 µM | – | 17.2 ± 1.6 µM | – | – |
| C#Cc1ccc2c(c1)C(c1ccccc1F)=N[C@@H](C)c1c(C(=O)OC(C)C)ncn1-2 [5c, (S)-Isopropyl-8-ethynyl-6-(2-fluorophenyl)-4-methyl-4H-benzo[f]imidazo[1,5-a][1,4]diazepine-3-carboxylate] | 0.95 ± 0.0333 h | 39.9 ± 2.8 µM | 3.78 ± 0.267 h | 48.9 ± 4.4 µM | – | remaining at 1 h [1, 4]: 47 ± 0.2%; remaining at 1 h [2, 4]: 83 ± 0.1% |
| C#Cc1ccc2c(c1)C(c1ccccc1F)=N[C@@H](C)c1c(C(=O)NC)ncn1-2 [8a, (S)-8-Ethynyl-6-(2-fluorophenyl)-N,4-dimethyl-4H-benzo[f]imidazo[1,5-a][1,4]diazepine-3-carboxamide] | – | – | – | – | 86 ± 0.2% | remaining at 2 h ([1]; after 2 hr): 92 ± 0.3% |
| C#Cc1ccc2c(c1)C(c1ccccc1F)=N[C@@H](C)c1c(C(=O)NC(C)(C)C)ncn1-2 [8e, (S)-N-(tert-Butyl)-8-ethynyl-6-(2-fluorophenyl)-4-methyl-4H-benzo[f]imidazo[1,5-a][1,4]diazepine-3-carbox-amide] | – | 43.4 ± 4.0 µM | – | 33.6 ± 3.0 µM | – | Microsomal stability (HLM) % remaining ([1]; after 2 hr): 63.0 ± 0.3%; Microsomal stability (HLM) Half-life ([1]; after 2 hr): 205 ± 14 min; Effect on sensorimotor coordination (motor impairment, sedation/ataxia) (mice): did not show any motor impairment; Microsomal stability (MLM) % remaining ([2]; after 2 hr): 52.0 ± 0.3%; Microsomal stability (MLM) Half-life ([2]; after 2 hr): 142 ± 9 min |
| C#Cc1ccc2c(c1)C(c1ccccc1F)=N[C@@H](C)c1c(C(=O)NCC)ncn1-2 [8b, (S)-N-Ethyl-8-ethynyl-6-(2-fluorophenyl)-4-methyl-4H-benzo[f]imidazo[1,5-a][1,4]diazepine-3-carboxamide] | 33 ± 0.833 h | 65.4 ± 7.3 µM | 32.7 ± 0.767 h | 95.5 ± 12.6 µM | > 92% | remaining at 2 h ([1]; after 2 hr): > 92% |
| C#Cc1ccc2c(c1)C(c1ccccc1F)=N[C@@H](C)c1c(C(=O)O)ncn1-2 [compound 6, (S)-8-Ethynyl-6-(2-fluorophenyl)-4-methyl-4H-benzo[f]imidazo[1,5-a][1,4]diazepine-3-carboxylic acid] | 5.97 ± 0.933 h | >400 µM | 2.32 ± 0.183 h | >400 µM | – | remaining at 2 h ([1]; after 2 hr): 74 ± 0.4%; remaining at 1 h [2, 4]: 54 ± 0.3% |
